Results reported in patent US20160168118A1, “N-(5-QUINOLIN-6-YL)PYRIDIN-3-YL) BENZSULFAMIDE DERIVATIVES, PREPARATION METHOD AND THERAPEUTIC USE THEREOF” (SECOND MILITARY MEDICAL UNIVERSITY, PLA, priority 2012, published 2016).
Converted amounts (≈) assume the structure as drawn. Like-named read-outs stand apart in the source and are kept apart here.

Legend:
PI3Kα = PI3Kα (Homo sapiens, UniProt P42336); experiment: Kinase-Glo Luminescent Kinase Assay, PI3Kα; assay type: biochemical
PI3Kγ = PI3Kγ (Homo sapiens, UniProt P48736); experiment: ADP-Glo Luminescent Kinase Assay, PI3Kγ; assay type: biochemical; settings: read-out: IC50 on PI3K gamma
Chain of PI3Kγ (P48736 whole entry, species assumed): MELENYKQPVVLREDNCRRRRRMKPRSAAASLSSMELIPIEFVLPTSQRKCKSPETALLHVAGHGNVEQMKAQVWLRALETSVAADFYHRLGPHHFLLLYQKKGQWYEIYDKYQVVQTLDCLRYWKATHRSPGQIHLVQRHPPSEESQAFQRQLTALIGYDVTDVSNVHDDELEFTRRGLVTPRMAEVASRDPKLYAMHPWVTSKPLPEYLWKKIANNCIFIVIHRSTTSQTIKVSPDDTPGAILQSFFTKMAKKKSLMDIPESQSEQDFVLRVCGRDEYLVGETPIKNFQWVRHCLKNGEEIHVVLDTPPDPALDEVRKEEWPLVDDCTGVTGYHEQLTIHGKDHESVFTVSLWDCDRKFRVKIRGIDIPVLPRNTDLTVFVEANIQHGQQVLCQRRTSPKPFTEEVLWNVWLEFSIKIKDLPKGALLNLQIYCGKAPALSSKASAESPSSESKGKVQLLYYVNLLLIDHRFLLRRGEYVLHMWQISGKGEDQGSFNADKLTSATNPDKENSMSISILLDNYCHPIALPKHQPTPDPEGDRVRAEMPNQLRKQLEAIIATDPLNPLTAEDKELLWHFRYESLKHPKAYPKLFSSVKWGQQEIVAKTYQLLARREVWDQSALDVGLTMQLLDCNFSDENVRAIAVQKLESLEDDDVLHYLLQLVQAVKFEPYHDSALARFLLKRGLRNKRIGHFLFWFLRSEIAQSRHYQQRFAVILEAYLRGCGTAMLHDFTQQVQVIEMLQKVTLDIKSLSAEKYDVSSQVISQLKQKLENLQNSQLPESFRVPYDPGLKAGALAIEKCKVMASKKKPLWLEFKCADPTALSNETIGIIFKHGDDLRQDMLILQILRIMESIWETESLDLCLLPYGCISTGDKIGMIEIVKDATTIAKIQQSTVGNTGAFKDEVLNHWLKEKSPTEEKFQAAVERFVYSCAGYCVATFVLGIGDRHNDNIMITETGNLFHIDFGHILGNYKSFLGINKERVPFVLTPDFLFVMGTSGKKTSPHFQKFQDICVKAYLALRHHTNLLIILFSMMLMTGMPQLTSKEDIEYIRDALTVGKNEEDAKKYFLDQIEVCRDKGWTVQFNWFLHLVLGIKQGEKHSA

PI3Kβ = PI3Kβ (Homo sapiens, UniProt P42338); experiment: ADP-Glo Luminescent Kinase Assay, PI3Kβ; assay type: biochemical; settings: read-out: IC50 on PI3K beta
Chain of PI3Kβ (P42338 whole entry, species assumed): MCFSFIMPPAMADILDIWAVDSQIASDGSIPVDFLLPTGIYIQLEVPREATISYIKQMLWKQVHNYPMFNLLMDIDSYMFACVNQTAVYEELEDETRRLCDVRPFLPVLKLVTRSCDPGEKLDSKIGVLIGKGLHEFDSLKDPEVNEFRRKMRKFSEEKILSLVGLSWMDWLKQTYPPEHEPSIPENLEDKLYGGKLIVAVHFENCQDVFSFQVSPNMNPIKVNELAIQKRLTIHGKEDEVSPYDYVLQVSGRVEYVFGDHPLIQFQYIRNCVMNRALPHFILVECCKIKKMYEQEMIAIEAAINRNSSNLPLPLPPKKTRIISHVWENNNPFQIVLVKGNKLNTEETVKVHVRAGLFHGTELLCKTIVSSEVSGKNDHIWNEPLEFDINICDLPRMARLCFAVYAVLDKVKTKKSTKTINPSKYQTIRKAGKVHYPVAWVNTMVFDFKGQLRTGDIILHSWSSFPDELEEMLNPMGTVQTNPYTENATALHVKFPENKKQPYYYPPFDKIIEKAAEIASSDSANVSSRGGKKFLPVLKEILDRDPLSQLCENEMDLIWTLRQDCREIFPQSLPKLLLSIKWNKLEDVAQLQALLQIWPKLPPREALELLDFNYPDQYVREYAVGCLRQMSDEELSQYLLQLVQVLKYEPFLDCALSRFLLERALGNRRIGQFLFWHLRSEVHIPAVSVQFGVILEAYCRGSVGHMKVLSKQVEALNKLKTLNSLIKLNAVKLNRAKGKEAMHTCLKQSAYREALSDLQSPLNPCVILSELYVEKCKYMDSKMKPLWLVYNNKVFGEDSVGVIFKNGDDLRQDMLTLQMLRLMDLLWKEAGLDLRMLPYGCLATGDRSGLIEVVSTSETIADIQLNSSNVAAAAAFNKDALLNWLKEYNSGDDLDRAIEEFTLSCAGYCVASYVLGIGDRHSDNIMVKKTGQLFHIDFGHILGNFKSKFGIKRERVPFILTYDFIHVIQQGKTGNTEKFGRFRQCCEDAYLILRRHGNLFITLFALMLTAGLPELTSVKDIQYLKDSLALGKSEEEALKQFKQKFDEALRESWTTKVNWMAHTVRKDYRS
Chain of PI3Kβ (P27986 whole entry partner, species assumed): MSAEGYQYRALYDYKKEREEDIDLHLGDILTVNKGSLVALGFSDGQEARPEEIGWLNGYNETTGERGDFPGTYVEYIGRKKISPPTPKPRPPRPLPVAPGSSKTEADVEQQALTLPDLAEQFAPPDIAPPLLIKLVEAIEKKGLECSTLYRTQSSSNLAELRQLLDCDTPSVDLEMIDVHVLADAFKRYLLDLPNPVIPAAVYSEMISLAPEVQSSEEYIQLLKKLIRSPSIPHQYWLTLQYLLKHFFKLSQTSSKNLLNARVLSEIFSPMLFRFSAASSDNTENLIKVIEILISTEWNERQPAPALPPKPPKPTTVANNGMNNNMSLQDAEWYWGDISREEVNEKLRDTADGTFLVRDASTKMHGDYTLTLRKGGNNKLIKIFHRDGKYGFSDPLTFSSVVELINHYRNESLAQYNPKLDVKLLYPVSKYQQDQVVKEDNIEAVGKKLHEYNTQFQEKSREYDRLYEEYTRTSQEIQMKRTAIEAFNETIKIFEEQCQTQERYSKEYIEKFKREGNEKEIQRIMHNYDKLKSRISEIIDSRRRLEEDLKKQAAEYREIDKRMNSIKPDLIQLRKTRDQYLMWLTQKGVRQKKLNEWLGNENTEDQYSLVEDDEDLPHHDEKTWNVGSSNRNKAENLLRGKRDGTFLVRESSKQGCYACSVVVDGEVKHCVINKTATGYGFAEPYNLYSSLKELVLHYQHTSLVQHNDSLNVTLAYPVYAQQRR

PI3K delta = PI3K delta (Homo sapiens, UniProt O00329); experiment: Kinase-Glo Luminescent Kinase Assay, PI3K delta; assay type: biochemical
Chain of PI3K delta (O00329 whole entry): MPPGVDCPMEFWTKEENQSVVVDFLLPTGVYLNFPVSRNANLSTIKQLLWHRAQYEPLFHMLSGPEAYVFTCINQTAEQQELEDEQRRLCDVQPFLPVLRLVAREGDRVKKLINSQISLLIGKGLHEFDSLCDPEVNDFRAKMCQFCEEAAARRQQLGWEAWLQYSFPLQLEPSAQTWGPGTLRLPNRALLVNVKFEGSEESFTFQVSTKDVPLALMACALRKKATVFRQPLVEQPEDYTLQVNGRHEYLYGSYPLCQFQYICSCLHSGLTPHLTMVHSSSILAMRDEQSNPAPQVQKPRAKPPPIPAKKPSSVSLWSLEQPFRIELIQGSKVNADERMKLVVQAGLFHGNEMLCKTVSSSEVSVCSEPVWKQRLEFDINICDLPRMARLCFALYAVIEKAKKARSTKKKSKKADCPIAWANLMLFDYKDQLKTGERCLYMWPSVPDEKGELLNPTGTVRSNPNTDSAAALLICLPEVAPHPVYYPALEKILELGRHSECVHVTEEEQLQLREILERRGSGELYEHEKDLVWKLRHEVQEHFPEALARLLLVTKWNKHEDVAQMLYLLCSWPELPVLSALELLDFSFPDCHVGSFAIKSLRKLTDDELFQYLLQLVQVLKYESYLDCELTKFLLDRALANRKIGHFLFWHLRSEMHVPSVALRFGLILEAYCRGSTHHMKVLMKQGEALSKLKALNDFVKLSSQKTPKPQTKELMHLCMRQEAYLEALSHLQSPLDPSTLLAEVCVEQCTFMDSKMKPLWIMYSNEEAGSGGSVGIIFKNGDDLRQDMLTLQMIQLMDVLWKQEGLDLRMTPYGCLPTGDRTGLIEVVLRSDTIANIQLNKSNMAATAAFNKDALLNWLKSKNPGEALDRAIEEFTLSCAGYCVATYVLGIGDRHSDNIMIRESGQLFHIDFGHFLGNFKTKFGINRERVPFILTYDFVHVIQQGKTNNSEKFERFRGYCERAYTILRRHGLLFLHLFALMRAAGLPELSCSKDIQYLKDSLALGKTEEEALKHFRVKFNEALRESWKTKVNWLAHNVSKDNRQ
Chain of PI3K delta (P27986 whole entry partner): as the sequence (P27986 whole entry partner, species assumed) above

mTOR = mTOR (Homo sapiens, UniProt P42345); experiment: Lance Ultra Assay, mTOR; assay type: biochemical
[1] = tested on: A549 (human lung cancer cells); experiment: MTT assay, A549; assay type: cell-based; settings: 72 h
Description: (§1) 1. Sample preparation: After dissolved with DMSO (Merck), PBS (−) was added to make 1000 μg/ml solution or a uniform suspension, and then diluted with PBS (−) containing the DMSO. Doxorubicin (DOX) was used as the positive control drug.
(§2) 2. Cell Line • 1) A549 (human lung cancer cells); 2) HCT116 (human colon cancer cells); 3) HepG2 (human hepatoma cells); 4) ZR-75-30 (human breast cancer cells); 5) U87MG (human brain star glioblastoma)
(§3) DMEM+5-10% FBS+double resistant
(§4) MTT assay. 100 μl cell suspension was added at a concentration of 4˜5×10^4 cells/ml to each well of a 96-well plate, and was set at 37° C., 5% CO2 in the incubator. After 24 h, the sample solution was added, 10 μl/hole, double wells were set, 37° C., acting for 72 h at 5% CO2. […] of 5 mg/ml was added to each well, the dissolving liquid was added after acted for 4 h, 100 μl/hole, kept in the incubator, and read 570 nm OD with MK-2 automatic microplate reader after dissolution.

[2] = tested on: HCT116 (human colon cancer cells); experiment: MTT assay, HCT116; assay type: cell-based; settings: HCT-116, 72 h
[3] = tested on: U87MG (human brain star glioblastoma); experiment: MTT assay, U87MG; assay type: cell-based; settings: U-87 MG, 72 h
Description: as §1, §2, §3, §4

[4] = tested on: HepG2 (human hepatoma cells); experiment: MTT assay, HepG2; assay type: cell-based; settings: 72 h
Description: as §1, §2, §3, §4

[5] = tested on: ZR-75-30 (human breast cancer cells); experiment: MTT assay, ZR-75-30; assay type: cell-based; settings: 72 h
Description: as §1, §2, §3, §4

five human tumor cells = experiment: MTT assay, five human tumor cells (summary in words); assay type: cell-based; settings: A549, HCT116, HepG2, ZR-75-30, U87MG
Description: as §1, §2, §3, §4

A549 = experiment: NCI cytotoxicity test, A549; assay type: cell-based; settings: Homo sapiens
Source text: (§5) Cytotoxicity Test of Compound 9, 10 and 17 on 60 Kinds of Human Cancer Cell Lines from the US National Cancer Institute

COLO205 = experiment: NCI cytotoxicity test, COLO205; assay type: cell-based; settings: Homo sapiens, COLO 205
Source text: as §5

SF539 = experiment: NCI cytotoxicity test, SF539; assay type: cell-based; settings: Homo sapiens, SF-539
Source text: as §5

OVCAR3 = experiment: NCI cytotoxicity test, OVCAR3; assay type: cell-based; settings: Homo sapiens, OVCAR-3
Source text: as §5

SN12C = experiment: NCI cytotoxicity test, SN12C; assay type: cell-based; settings: Homo sapiens
Source text: as §5

PC3 = experiment: NCI cytotoxicity test, PC3; assay type: cell-based; settings: Homo sapiens, PC-3
Source text: as §5

MCF7 = experiment: NCI cytotoxicity test, MCF7; assay type: cell-based; settings: Homo sapiens
Source text: as §5

[6] = tested on: 60 kinds of human cancer cell lines; experiment: Cytotoxicity test on 60 kinds of human cancer cell lines from the US National Cancer Institute; assay type: cell-based
Source text: as §5

Chain of PI3Kα (P42336 whole entry, species assumed): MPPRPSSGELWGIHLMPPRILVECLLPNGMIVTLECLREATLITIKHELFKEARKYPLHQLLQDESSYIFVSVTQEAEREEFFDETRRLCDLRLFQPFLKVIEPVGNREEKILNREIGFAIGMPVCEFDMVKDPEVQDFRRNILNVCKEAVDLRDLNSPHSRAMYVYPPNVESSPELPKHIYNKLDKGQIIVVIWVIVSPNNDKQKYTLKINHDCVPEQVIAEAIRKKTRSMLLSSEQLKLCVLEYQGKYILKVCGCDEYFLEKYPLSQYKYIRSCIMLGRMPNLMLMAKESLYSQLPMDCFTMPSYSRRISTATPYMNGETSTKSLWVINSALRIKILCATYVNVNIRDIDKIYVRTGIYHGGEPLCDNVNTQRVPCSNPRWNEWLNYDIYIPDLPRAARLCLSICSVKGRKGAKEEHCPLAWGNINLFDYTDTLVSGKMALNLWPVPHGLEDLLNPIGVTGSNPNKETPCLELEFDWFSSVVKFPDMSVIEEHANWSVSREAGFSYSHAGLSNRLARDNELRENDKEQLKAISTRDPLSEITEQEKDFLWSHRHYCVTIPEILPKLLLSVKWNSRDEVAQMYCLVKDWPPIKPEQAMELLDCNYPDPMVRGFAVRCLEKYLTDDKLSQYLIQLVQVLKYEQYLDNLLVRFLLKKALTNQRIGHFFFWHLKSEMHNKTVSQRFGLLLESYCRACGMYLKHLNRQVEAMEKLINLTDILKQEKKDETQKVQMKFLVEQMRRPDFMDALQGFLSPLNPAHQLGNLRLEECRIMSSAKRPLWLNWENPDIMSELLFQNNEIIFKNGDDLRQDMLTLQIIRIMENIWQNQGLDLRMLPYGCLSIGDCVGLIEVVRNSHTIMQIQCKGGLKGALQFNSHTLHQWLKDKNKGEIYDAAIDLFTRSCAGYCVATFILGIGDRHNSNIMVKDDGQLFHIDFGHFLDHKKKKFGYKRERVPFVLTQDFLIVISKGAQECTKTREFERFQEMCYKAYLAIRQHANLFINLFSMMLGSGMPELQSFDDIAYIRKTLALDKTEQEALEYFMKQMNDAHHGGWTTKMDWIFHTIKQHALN
Chain of PI3Kα (P27986 whole entry partner, species assumed): as the sequence (P27986 whole entry partner, species assumed) above

Compound	IC50 (PI3Kα)	IC50 [1]	IC50 [2]	IC50 [3]	IC50 [4]	IC50 [5]	melting point	other results
CCN(CC)Cc1ccc(-c2ccnc3ccc(-c4cnc(OC)c(NS(=O)(=O)c5ccc(F)cc5F)c4)cc23)cc1 [Compound 5, N-(5-(4-(4-((diethylamine)methyl)phenyl)quinolin-6-yl)-2-methoxypyridine-3-yl)-2,4-difluorobenzenesulfonamide]	1.1 nM	0.013 µg/mL (≈ 0.0221 µM)	0.00293 µg/mL (≈ 0.00498 µM)	2.88 µg/mL (≈ 4.89 µM)	0.613 µg/mL (≈ 1.04 µM)	0.783 µg/mL (≈ 1.33 µM)	106 to 108 °C	
CCOC(=O)c1ccc(-c2ccnc3ccc(-c4cnc(OC)c(NS(=O)(=O)c5ccc(F)cc5F)c4)cc23)cc1 [Compound 8, 4-(6-(5-(2,4-difluorobenzenesulfonamideyl)-6-methoxypyridine-3-yl)quinolin-4-yl) ethyl benzoate]	2.6 nM	0.043 µg/mL (≈ 0.0747 µM)	0.235 µg/mL (≈ 0.408 µM)	11.7 µg/mL (≈ 20.3 µM)	2.65 µg/mL (≈ 4.6 µM)	2.45 µg/mL (≈ 4.26 µM)	90 to 92 °C	
COc1ncc(-c2ccc3nccc(-c4ccc(Cn5cncn5)cc4)c3c2)cc1NS(=O)(=O)c1ccc(F)cc1F [Compound 10, N-(5-(4-(4-((1H-1,2,4-triazole-1-yl)methyl)phenyl)quinolin-6-yl)-2-methoxypyridine-3-yl)-2,4-difluorobenzenesulfonamide]	0.65 nM	0.00927 µg/mL (≈ 0.0159 µM)	0.00507 µg/mL (≈ 0.00867 µM)	0.129 µg/mL (≈ 0.221 µM)			121 to 123 °C	IC50 (PI3Kγ): 0.74 nM; IC50 (PI3Kβ): 1.7 nM; IC50 (PI3K delta): 2.8 nM; IC50 (mTOR): 1.1 nM; in vitro proliferation inhibition (in words) (five human tumor cells): high in vitro proliferation inhibition; GI50 (A549): < 10 nM; GI50 (COLO205): < 10 nM; GI50 (SF539): < 10 nM; GI50 (OVCAR3): < 10 nM; GI50 (SN12C): < 10 nM; GI50 (PC3): < 10 nM; GI50 (MCF7): < 10 nM; GI50 ([6]; on the 36 tumor cell lines, read-out: average half growth inhibitory concentration (GI50)): < 10 nM; GI50 ([6]; on the 60 kinds of tumor cells, read-out: Average GI50): 15.1 nM
CN(C)Cc1ccc(-c2ccnc3ccc(-c4cnc(Cl)c(NS(=O)(=O)c5ccc(F)cc5F)c4)cc23)cc1 [Compound 32, N-(5-(4-(4-((dimethylamine)methyl)phenyl)quinolin-6-yl)-2-chlorinepyridin-3-yl)-2,4-difluorobenzenesulfonamide]	0.69 nM	2.12 µg/mL (≈ 3.75 µM)	1.03 µg/mL (≈ 1.82 µM)		2.18 µg/mL (≈ 3.86 µM)		160 to 164 °C	
O=S(=O)(Nc1cc(-c2ccc3nccc(-c4ccc(Cn5cncn5)cc4)c3c2)cnc1Cl)c1ccc(F)cc1 [Compound 33, N-(5-(4-(4-((1H-1,2,4-triazole-1-yl)methyl)phenyl)quinolin-6-yl)-2-chlorinepyridin-3-yl)-4-fluorobenzenesulfonamide]	0.73 nM	1.52 µg/mL (≈ 2.66 µM)	1.43 µg/mL (≈ 2.5 µM)		5.47 µg/mL (≈ 9.58 µM)		235 to 236 °C	
COc1ncc(-c2ccc3nccc(-c4ccc(Cn5cncn5)cc4)c3c2)cc1NS(=O)(=O)c1ccc(F)cc1 [Compound 34, N-(5-(4-(4-((1H-1,2,4-triazole-1-yl)methyl)phenyl)quinolin-6-yl)-2-methoxypyridine-3-yl)-4-fluorobenzenesulfonamide]	0.91 nM	0.28 µg/mL (≈ 0.494 µM)	1.15 µg/mL (≈ 2.03 µM)		7.18 µg/mL (≈ 12.7 µM)		150 to 152 °C	
O=S(=O)(Nc1cc(-c2ccc3nccc(-c4ccc(Cn5cncn5)cc4)c3c2)cnc1Cl)c1ccc(F)cc1F [Compound 35, N-(5-(4-(4-((1H-1,2,4-triazole-1-yl)methyl)phenyl)quinolin-6-yl)-2-chlorinepyridin-3-yl)-2,4-difluorobenzenesulfonamide]	0.82 nM	5.66 µg/mL (≈ 9.61 µM)	1.64 µg/mL (≈ 2.78 µM)		1.2 µg/mL (≈ 2.04 µM)		145 to 148 °C	
CN(CCO)Cc1ccc(-c2ccnc3ccc(-c4cnc(Cl)c(NS(=O)(=O)c5ccc(F)cc5)c4)cc23)cc1 [Compound 36, N-(5-(4-(4-(((2-hydroxyethyl)(methyl)amino)methyl)phenyl)quinolin-6-yl)-2-chlorinepyridin-3-yl)-4-fluorobenzenesulfonamide]	1 nM	0.13 µg/mL (≈ 0.225 µM)	1.06 µg/mL (≈ 1.84 µM)		1.1 µg/mL (≈ 1.91 µM)		214 to 217 °C	
CN(CCO)Cc1ccc(-c2ccnc3ccc(-c4cnc(Cl)c(NS(=O)(=O)c5ccc(F)cc5F)c4)cc23)cc1 [Compound 37, N-(5-(4-(4-(((2-hydroxyethyl)(methyl)amino)methyl)phenyl)quinolin-6-yl)-2-chlorinepyridin-3-yl)-2,4-difluorobenzenesulfonamide]	0.75 nM	1.08 µg/mL (≈ 1.81 µM)	1.89 µg/mL (≈ 3.18 µM)		1.71 µg/mL (≈ 2.87 µM)		132 to 135 °C	

Second part, led by results:

IC50 (PI3Kα)	IC50 [1]	IC50 [2]	IC50 [3]	IC50 [4]	IC50 [5]	melting point	Compound	other results
0.55 nM	0.00819 µg/mL (≈ 0.0166 µM)	0.011 µg/mL (≈ 0.0222 µM)	0.475 µg/mL (≈ 0.961 µM)	1.37 µg/mL (≈ 2.77 µM)	0.454 µg/mL (≈ 0.918 µM)	123 to 124 °C	COc1ncc(-c2ccc3nccc(-n4cncn4)c3c2)cc1NS(=O)(=O)c1ccc(F)cc1F [Compound 1, N-(5-(4-(1H-1,2,4-triazole-1-yl)quinolin-6-yl)-2-methoxypyridine-3-yl)-2,4-difluorobenzenesulfonamide]	IC50 (PI3Kγ): 0.47 nM; IC50 (PI3Kβ): 3.6 nM; IC50 (PI3K delta): 2.6 nM; IC50 (mTOR): 1.1 nM
> 100 nM	1.69 µg/mL (≈ 3.41 µM)	1.65 µg/mL (≈ 3.32 µM)	3.32 µg/mL (≈ 6.69 µM)	9.83 µg/mL (≈ 19.8 µM)	6.73 µg/mL (≈ 13.6 µM)	223 to 225 °C	COc1ncc(-c2ccc3nccc(N4CCCC4)c3c2)cc1NS(=O)(=O)c1ccc(F)cc1F [Compound 2]	
1.4 nM	1.23 µg/mL (≈ 2.4 µM)	2.27 µg/mL (≈ 4.43 µM)	64.7 µg/mL (≈ 126 µM)	11.5 µg/mL (≈ 22.4 µM)	2.16 µg/mL (≈ 4.21 µM)	219 to 221 °C	COc1ncc(-c2ccc3nccc(N4CCOCC4)c3c2)cc1NS(=O)(=O)c1ccc(F)cc1F [Compound 3, N-(2-methoxy-5-(4-morpholinequinolin-6-yl)pyridin-3-yl)-2,4-difluorobenzenesulfonamide]	
2.3 nM	1.36 µg/mL (≈ 2.94 µM)	3.04 µg/mL (≈ 6.59 µM)	> 100 µg/mL	2.26 µg/mL (≈ 4.89 µM)	2.59 µg/mL (≈ 5.61 µM)	171 to 173 °C	COc1ncc(-c2ccc3nccc(Cl)c3c2)cc1NS(=O)(=O)c1ccc(F)cc1F [Compound 4, N-(5-(4-chlorinequinolin-6-yl)-2-methoxypyridine-3-yl)-2,4-difluorobenzenesulfonamide]	
4.5 nM	0.642 µg/mL (≈ 1.24 µM)	1.31 µg/mL (≈ 2.54 µM)	34.7 µg/mL (≈ 67 µM)	5.63 µg/mL (≈ 10.9 µM)	6.69 µg/mL (≈ 12.9 µM)	175 to 176 °C	COc1ncc(-c2ccc3nccc(-c4ccc(C)cc4)c3c2)cc1NS(=O)(=O)c1ccc(F)cc1F [Compound 6, N-(2-methoxy-5-(4-(p-methylphenyl)quinolin-6-yl)pyridin-3-yl)-2,4-difluorobenzenesulfonamide]	
1.5 nM	0.014 µg/mL (≈ 0.0249 µM)	0.277 µg/mL (≈ 0.493 µM)	3.9 µg/mL (≈ 6.95 µM)	1.16 µg/mL (≈ 2.07 µM)	1.74 µg/mL (≈ 3.1 µM)	69 to 72 °C	COC(=O)c1ccc(-c2ccnc3ccc(-c4cnc(OC)c(NS(=O)(=O)c5ccc(F)cc5F)c4)cc23)cc1 [Compound 7, 4-(6-(5-(2,4-difluorobenzenesulfonamideyl)-6-methoxypyridine-3-yl)quinolin-4-yl)methyl benzoate]	
